# Measured values taken from patent US5071857A, “2,6-dioxopiperidine derivatives, their preparation and pharmaceutical compositions containing them” (National Research Development Corporation, priority 1983, dated 1991).
# Like-named read-outs stand apart in the source and are kept apart here.
# Assays:
# aromatase = biological target: T1, aromatase (Homo sapiens, UniProt P11511); assay: Inhibition of aromatase (microsomal fraction of human placental tissue, 3H2O release from (1,2-3H) testosterone); format: biochemical
# T1 construct: Aromatase was obtained from the microsomal fraction of human placental tissue; from tissue; host or cells: human placenta, microsomal fraction
# T1 sequence (P11511 1-503): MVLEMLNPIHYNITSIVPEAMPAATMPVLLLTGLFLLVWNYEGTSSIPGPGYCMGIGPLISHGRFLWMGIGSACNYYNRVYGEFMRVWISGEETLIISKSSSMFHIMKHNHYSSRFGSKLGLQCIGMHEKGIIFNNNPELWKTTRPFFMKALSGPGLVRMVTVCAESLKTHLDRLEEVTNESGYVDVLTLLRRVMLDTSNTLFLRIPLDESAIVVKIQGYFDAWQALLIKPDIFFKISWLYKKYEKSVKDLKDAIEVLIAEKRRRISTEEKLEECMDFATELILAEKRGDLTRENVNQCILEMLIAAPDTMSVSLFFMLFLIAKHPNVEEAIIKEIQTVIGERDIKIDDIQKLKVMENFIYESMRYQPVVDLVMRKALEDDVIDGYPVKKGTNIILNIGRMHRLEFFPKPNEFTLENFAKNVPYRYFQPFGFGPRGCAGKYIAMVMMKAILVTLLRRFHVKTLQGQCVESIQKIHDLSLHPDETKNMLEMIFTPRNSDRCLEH
# Protocol: The activity of various glutarimides against the enzymes aromatase and desmolase was assayed as follows. Each compound was examined over a range of concentrations. At each concentration of inhibitor, samples were removed at three time points. The results were plotted on a graph of product released against time of incubation. The resulting linear graph was used to determine the rate of enzyme reaction at each concentration of inhibitor.
# A. Desmolase The mitochondrial fraction of bovine adrenal cortex provided the source of desmolase and the method of isolation was essentially as published by R. B. Hochberg et al., Biochemistry, 13, 603 (1974). The enzyme activity was assayed using (26-^14 C)-cholesterol as substrate and measuring the ^14 C-isocaproic acid released, see R. B. Hochberg et al., supra. and V. I. Uzgiris et al., Endocrinology, 101, 89 (1977). Inhibitor compounds were added in ethanol (microliters) and an equal volume of ethanol was added to the control assay. The total volume of the assay mixture was 1.0 ml. After preincubating the assay tubes at 30° C. for 5 minutes, the reaction was started by the addition of 1 mg of mitochondrial protein. Samples were removed after 2,4 and 6 minutes of incubation and the assay completed as described.
# desmolase [1] = biological target: T2, desmolase (Bos taurus, UniProt P00189); assay: Inhibition of desmolase (mitochondrial fraction of bovine adrenal cortex, 14C-isocaproic acid release from (26-14C)-cholesterol); format: biochemical
# T2 construct: The mitochondrial fraction of bovine adrenal cortex provided the source of desmolase; from tissue; host or cells: bovine adrenal cortex, mitochondrial fraction
# T2 sequence (P00189 40-520): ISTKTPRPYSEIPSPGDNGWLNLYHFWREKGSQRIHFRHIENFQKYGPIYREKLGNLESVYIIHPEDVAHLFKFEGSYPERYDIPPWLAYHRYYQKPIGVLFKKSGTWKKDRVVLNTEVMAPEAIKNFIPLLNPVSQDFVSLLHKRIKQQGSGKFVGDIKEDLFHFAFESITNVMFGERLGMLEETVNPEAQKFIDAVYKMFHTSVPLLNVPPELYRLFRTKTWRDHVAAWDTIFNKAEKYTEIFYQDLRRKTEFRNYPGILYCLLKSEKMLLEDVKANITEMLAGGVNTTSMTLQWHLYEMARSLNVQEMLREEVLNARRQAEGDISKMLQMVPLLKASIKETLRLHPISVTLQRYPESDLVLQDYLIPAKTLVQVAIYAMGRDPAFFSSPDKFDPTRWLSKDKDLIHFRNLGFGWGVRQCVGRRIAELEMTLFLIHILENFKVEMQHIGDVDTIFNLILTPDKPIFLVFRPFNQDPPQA
# [2] = prior art; cited from earlier work
# [3] = test system: Rat mammary tumours induced with MNU (N-methyl-N-nitrosourea); assay: Tests in vivo on tumour regression, MNU-induced rat mammary tumours; design: species or system rat (Ludwig Wistar/Ola, WF/ICRF/Ola, female); details: for percentage of tumours which regress (in words): 42 days; for percentage of tumours which regress (in words) / No. tumours grown by more than 100% / No. tumours grown by up to 100% / No. tumours regressed but by less than 50% / No. tumours regressed by 50% or more / No. tumours with no change: 0.165 millimoles/kg/day s.c.; for No. tumours grown by more than 100% / No. tumours grown by up to 100% / No. tumours regressed but by less than 50% / No. tumours regressed by 50% or more / No. tumours with no change: after 6 weeks (42 days)
# Protocol: Unlike DMBA (7,12-dimethylbenz[a]anthracene) induced tumours, MNU tumours may be primarily oestrogen-, rather than prolactin-dependent, see Pruitt, Rose and Bryan, Proc. Ann. Cancer Res. 20, 87, (1979).
# Using the method of Williams et al., supra, mammary tumours were induced in virgin female rats of the inbred strain Ludwig Wistar/Ola (WF/ICRF/Ola) by intravenous administration of MNU. MNU was dissolved in 0.9% aqueous sodium chloride solution acidified to pH 5 with acetic acid. Starting at age 50 days, each rat received 3 injections at 14 day intervals via the tail vein (5 mg MNU/100 g body weight/injection; injection volume of 0.5 ml/rat). Animals were assigned to experimental groups at 125-140 days after the first injection, with 12 animals in each group. At this time they bore from 1-3 tumours per animal.
# Controls received equivalent injections of DMSO alone.
# Results were expressed in terms of the percentage of initial tumour volume for each tumour after 42 day, treatment.
# [4] = Stability of injection solutions at pH 3.5-4; format: physicochemical
# Protocol: This went into solution at low pH very nicely. M NaOH was added to pH 3.5-4. The volume was made up using deionized water.
# central nervous system [5] = assay: Behavioral observations (Irwin observational assessment); details: for Passivity: rating 0-4, 20-30 minutes after injection
# central nervous system [6] = assay: Studies on anticonvulsant properties, pentylenetetrazol-induced convulsions; details: for prevention of pentylenetetrazol-induced convulsions: pentylenetetrazol 50 mg/kg
# central nervous system [7] = assay: Rotating rod experiments (rotarod test), drug-induced ataxia; details: for time of peak effect after injection: i.p.
# desmolase [8] = details: background; cited from earlier work
# [9] = 1.5 micromolar (3H) testosterone
# [10] = compared with aminoglutethimide
smiles,measurement,setting,value
CCC1(c2cccnc2)CCC(=O)NC1=O (stereo not shown),IC50 Aromatase,aromatase; [9],None
same,IC50 Desmolase,desmolase [1]; 7 micromolar (14C) cholesterol,None
CCC1(c2ccccn2)CCC(=O)NC1=O (stereo not shown) [3-ethyl-3-(2-pyridyl)-glutarimide],"sedative, hypnotic or anti-convulsive effect",[2],sedative and hypnotic effect
"CCC1(c2ccncc2)CCC(=O)NC1=O (stereo not shown) [3-ethyl-3-(4-pyridyl)glutarimide, 3-ethyl-3-(4-pyridyl)-2,6-piperidinedione]",percentage of tumours which regress (in words),[3],shows a similar effect
same,No. tumours grown by more than 100%,[3],8 tumours
same,No. tumours grown by up to 100%,[3],6 tumours
same,No. tumours regressed but by less than 50%,[3],3 tumours
same,No. tumours regressed by 50% or more,[3],9 tumours
same,No. tumours with no change,[3],1 tumours
same,inhibition of tumour growth (in words),[3]; [10],at least as effective an inhibitor of tumour growth in this assay as aminoglutethimide
same,time within which salt came out of solution,[4]; 50 mg,≤ 15 min
same,Desmolase inhibition (in words),desmolase [1],inhibits aromatase but not desmolase
same,IC50 Desmolase,desmolase [1]; 7 micromolar (14C) cholesterol,None
same,Abnormal gait,central nervous system [5]; 200 mg/kg i.p.,-
same,Corneal reflex,central nervous system [5]; 200 mg/kg i.p.,+
same,Flexor reflex,central nervous system [5]; 200 mg/kg i.p.,+
same,Grooming,central nervous system [5]; 200 mg/kg i.p.,-
same,Motor activity,central nervous system [5]; 200 mg/kg i.p.,N
same,Righting reflex,central nervous system [5]; 200 mg/kg i.p.,+
same,Tremors,central nervous system [5]; 200 mg/kg i.p.,-
same,Twitches,central nervous system [5]; 200 mg/kg i.p.,-
same,observable differences from control mice (in words),central nervous system [5]; 200 mg/kg i.p.,no grossly observable differences from the control mice
same,Passivity,central nervous system [5]; 200 mg/kg i.p.,0
same,Abnormal gait,central nervous system [5]; 300 mg/kg i.p.,-
same,Corneal reflex,central nervous system [5]; 300 mg/kg i.p.,+
same,Flexor reflex,central nervous system [5]; 300 mg/kg i.p.,+
same,Grooming,central nervous system [5]; 300 mg/kg i.p.,+
same,Motor activity,central nervous system [5]; 300 mg/kg i.p.,N
same,Righting reflex,central nervous system [5]; 300 mg/kg i.p.,+
same,Tremors,central nervous system [5]; 300 mg/kg i.p.,-
same,Twitches,central nervous system [5]; 300 mg/kg i.p.,-
same,spontaneous motor activity and struggle response (in words),central nervous system [5]; 300 mg/kg i.p.,some mice showed slight reduction in spontaneous motor activity and diminished struggle response
same,Corneal reflex,central nervous system [5]; 400 mg/kg i.p.,+
same,Flexor reflex,central nervous system [5]; 400 mg/kg i.p.,+
same,Grooming,central nervous system [5]; 400 mg/kg i.p.,+
same,Motor activity,central nervous system [5]; 400 mg/kg i.p.,Dec
same,Righting reflex,central nervous system [5]; 400 mg/kg i.p.,+
same,Tremors,central nervous system [5]; 400 mg/kg i.p.,-
same,Twitches,central nervous system [5]; 400 mg/kg i.p.,-
same,"activity, passivity and hindlimb control (in words)",central nervous system [5]; 400 mg/kg i.p.,"all mice were noticeably less active, more passive and had lost some control of their hindlimbs"
same,reflexes (in words),central nervous system [5]; 400 mg/kg i.p.,"All reflexes were still evident and the augmented flexor reflex, as had been noted with APG and CPZ-treated animals, was not present"
same,Passivity,central nervous system [5]; 400 mg/kg i.p.,3
same,lethality,"central nervous system [5]; 500 mg/kg i.p., three mice",lethal to the three mice tested
same,sedative side-effects,central nervous system [5]; [10],lower than that of aminoglutethimide
same,prevention of pentylenetetrazol-induced convulsions,"central nervous system [6]; 400, 300 and 200 mg/kg i.p.",None of these doses prevented the pentylenetetrazol-induced convulsions
same,anti-convulsant side-effects,central nervous system [6]; [10],lower than that of aminoglutethimide
same,effect on motor co-ordination (in words),central nervous system [7]; 300 mg/kg i.p.,little difference from the control
same,effect on motor co-ordination (in words),central nervous system [7]; 400 mg/kg i.p.,"the mice became more rigid, and while falling off the faster rod more frequently they tended to slump round the slowly rotating rod, and so stay on for a longer time"
same,Falls/2 min,"central nervous system [7]; 1 r.p.m., 15 min, 300 mg/kg i.p.",0.6 ± 0.3 Falls/2 min
same,Falls/2 min,"central nervous system [7]; 1 r.p.m., 15 min, 400 mg/kg i.p.",0.8 ± 0.4 Falls/2 min
same,Falls/2 min,"central nervous system [7]; 1 r.p.m., 30 min, 400 mg/kg i.p.",0.4 ± 0.2 Falls/2 min
same,Falls/2 min,"central nervous system [7]; 3 r.p.m., 15 min, 300 mg/kg i.p.",1.5 ± 0.5 Falls/2 min
same,Falls/2 min,"central nervous system [7]; 3 r.p.m., 15 min, 400 mg/kg i.p.",4.8 ± 1.0 Falls/2 min
same,Falls/2 min,"central nervous system [7]; 3 r.p.m., 30 min, 300 mg/kg i.p.",2.0 ± 0.2 Falls/2 min
same,Falls/2 min,"central nervous system [7]; 3 r.p.m., 30 min, 400 mg/kg i.p.",3.6 ± 1.3 Falls/2 min
same,time of peak effect after injection,central nervous system [7],15 min
CCC1(c2ccnc(C(C)(C)C)c2)CCC(=O)NC1=O (stereo not shown) [Example 4],IC50,aromatase; [9],20 µM
same,IC50 Desmolase,desmolase [1]; 7 micromolar (14C) cholesterol,None
"CCC1(c2ccccc2)CCC(=O)N(N)C1=O (stereo not shown) [N-aminoglutethimide, 1-amino-3-ethyl-3-phenylglutarimide]",Desmolase inhibition,desmolase [1],+ + +
"C1CCc2nnnn2CC1 [Pentylenetetrazol, pentylenetetrazol, reference compound]",convulsant activity,"central nervous system [6]; 50 mg/kg after NaCl vehicle, within 5 minutes","Increased motor activity was followed by tonic convulsions, then severe clonic extensor convulsions which caused death"
"CCC1(c2ccc(N)cc2)CCC(=O)NC1=O (stereo not shown) [aminoglutethimide, 3-ethyl-3-(4-aminophenyl)glutarimide, reference compound]",percentage of tumours which regress (in words),[3],causes an increase in the percentage of tumours which regress
same,No. tumours grown by more than 100%,[3],5 tumours
same,No. tumours grown by up to 100%,[3],2 tumours
same,No. tumours regressed but by less than 50%,[3],3 tumours
same,No. tumours regressed by 50% or more,[3],4 tumours
same,No. tumours with no change,[3],0 tumours
same,time after which salt precipitated from solution,[4]; 40 mg in 2 ml,> 2 h
same,Desmolase inhibition,desmolase [1],+ + +
same,IC50,desmolase [1]; 7 micromolar (14C) cholesterol,30 µM
same,Corneal reflex,central nervous system [5]; 100 mg/kg i.p.,+
same,Flexor reflex,central nervous system [5]; 100 mg/kg i.p.,Inc
same,Grooming,central nervous system [5]; 100 mg/kg i.p.,+
same,Motor activity,central nervous system [5]; 100 mg/kg i.p.,Dec
same,Righting reflex,central nervous system [5]; 100 mg/kg i.p.,+
same,Tremors,central nervous system [5]; 100 mg/kg i.p.,-
same,Twitches,central nervous system [5]; 100 mg/kg i.p.,-
same,"corneal, righting and flexor reflexes (in words)",central nervous system [5]; 100 mg/kg i.p.,"Corneal, righting and flexor reflexes were still apparent"
same,sedation (in words),central nervous system [5]; 100 mg/kg i.p.,marked sedation
same,flexor reflex (in words),"central nervous system [5]; 100 mg/kg i.p., compared to untreated animals",slightly augmented
same,Passivity,central nervous system [5]; 100 mg/kg i.p.,3
same,sleep (in words),"central nervous system [5]; 200 mg/kg i.p., three animals",all fell asleep within a few minutes of the injection
same,inhibition of desmolase,desmolase [8],also inhibits the enzyme desmolase
same,prevention of pentylenetetrazol-induced convulsions,"central nervous system [6]; i.p., dose not stated",prevented convulsions
same,effect on motor co-ordination (in words),central nervous system [7]; 100 mg/kg i.p. (Table 3),pronounced effect on motor co-ordination. Most of the mice were heavily sedated and thus completely unable to maintain themselves on the rod at either speed
same,Falls/2 min,"central nervous system [7]; 1 r.p.m., 15 min, 100 mg/kg i.p.",18.5 ± 3.5 Falls/2 min
same,Falls/2 min,"central nervous system [7]; 1 r.p.m., 30 min, 100 mg/kg i.p.",4.8 ± 2.0 Falls/2 min
same,Falls/2 min,"central nervous system [7]; 3 r.p.m., 15 min, 100 mg/kg i.p.",27.0 ± 2.0 Falls/2 min
same,time of peak effect after injection,central nervous system [7],15 min
CN(C)CCCN1c2ccccc2Sc2ccc(Cl)cc21 [chlorpromazine],unpredictable jumping and darting movements,"central nervous system [5]; 10 mg/kg i.p., particularly on the rotarod",5 out of 8
CCC1(c2ccccn2)CCC(=O)NC1=O (stereo not shown) [drawing 11],IC50 Aromatase,aromatase,None
same,IC50 Desmolase,desmolase [1]; 7 micromolar (14C) cholesterol,None
"CCC1(c2ccccc2)CCC(=O)NC1=O (stereo not shown) [glutethimide, 3-ethyl-3-phenylglutarimide]","sedative, hypnotic or anti-convulsive effect",[2],sedative and hypnotic agent
"CCC1(c2cccc(N)c2)CCC(=O)NC1=O (stereo not shown) [m-aminoglutethimide, 3-ethyl-3-(3-aminophenyl)glutarimide]",Aromatase inhibition,aromatase,+
same,Desmolase inhibition,desmolase [1],+ + +
